Laboratory results published in ChEMBL document CHEMBL1140576, “Discovery of novel non-cytotoxic salicylhydrazide containing HIV-1 integrase inhibitors” (Bioorg Med Chem Lett, 2007).
Active and inactive are the calls of the source. No cut-off for these calls is given here.

Key:
[1] = molecular target: T1, Human immunodeficiency virus type 1 integrase (Human immunodeficiency virus 1, UniProt Q7ZJM1); test: Inhibition of HIV1 integrase 3'-end processing activity
[2] = molecular target: T1, Human immunodeficiency virus type 1 integrase; test: Inhibition of HIV1 integrase strand transfer activity
[3] = Cytotoxicity against human HCT116 cells; assay type: cell-based, HCT-116
[4] = test system: HCT-116; test: Cytotoxicity against human HCT116 cells at 20 uM; assay type: cell-based; settings: hct-116, 20 µM
[5] = Cytotoxicity against human MDA-MB-435 cells; assay type: cell-based
[6] = test system: MDA-MB-435; test: Cytotoxicity against human MDA-MB-435 cells at 20 uM; assay type: cell-based; settings: mda-mb-435, 20 µM
[7] = molecular target: Human immunodeficiency virus type 1 integrase (Human immunodeficiency virus 1) (UniProt Q7ZJM1); test: Inhibition of HIV1 integrase 3'-end processing activity at 100 uM
Sequence of Human immunodeficiency virus type 1 integrase (Human immunodeficiency virus 1) (Q7ZJM1 as listed by the source): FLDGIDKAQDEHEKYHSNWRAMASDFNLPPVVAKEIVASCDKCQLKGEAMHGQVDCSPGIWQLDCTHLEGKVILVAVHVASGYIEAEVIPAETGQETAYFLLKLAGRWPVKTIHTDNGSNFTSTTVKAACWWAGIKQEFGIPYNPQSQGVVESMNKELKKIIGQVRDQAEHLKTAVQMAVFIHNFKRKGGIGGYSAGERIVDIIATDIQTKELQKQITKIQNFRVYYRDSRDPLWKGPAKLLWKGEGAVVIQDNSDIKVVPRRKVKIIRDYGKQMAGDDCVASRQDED

[8] = molecular target: Human immunodeficiency virus type 1 integrase (Human immunodeficiency virus 1) (UniProt Q7ZJM1); test: Inhibition of HIV1 integrase strand transfer activity at 100 uM

T1 sequence (Q7ZJM1 whole entry): as the sequence (Q7ZJM1 as listed by the source) above

| Activity [7] | Activity [8] | Structure (SMILES) | IC50 [1] | IC50 [2] | CC50 [3] | Activity [4] | CC50 [5] | Activity [6] |
| --- | --- | --- | --- | --- | --- | --- | --- | --- |
|  |  | Cc1cc(C)nc(SCc2nnc(SCC(=O)NNC(=O)c3ccccc3O)n2C)n1 | > 100 µM | > 100 µM | > 20 µM | 21% | > 20 µM | 16% |
|  |  | O=C(CSc1nnc(-c2ccccc2O)n1Cc1ccccc1)NNC(=O)c1ccccc1O | 15 µM | 9 µM | > 20 µM | 8% | > 20 µM | 15% |
|  |  | Cc1cc(C)nc(SCc2nnc(SCC(=O)NNC(=O)c3ccccc3O)n2-c2ccccc2)n1 | 51 µM | 27 µM | > 20 µM | 0% | > 20 µM | 3% |
|  |  | O=C(CSc1nnnn1-c1ccccc1)NNC(=O)c1ccc(O)cc1O | 68 µM | 61 µM | > 20 µM | 15% | > 20 µM | 3% |
| inactive | inactive | O=C(CSc1nnc(-c2ccc(Cl)cc2)n1-c1ccccc1)N/N=C/c1ccccc1C(=O)O | > 100 µM | > 100 µM | > 20 µM | 0% | > 20 µM | 8% |
|  |  | Cc1ccc(-n2c(SCC(=O)NNC(=O)c3ccccc3O)nnc2-c2ccccc2)cc1 | 23 µM | 12 µM | 15 µM |  | 20 µM |  |
|  |  | O=C(CSc1nnc(-c2ccc(Cl)cc2)n1-c1ccccc1)NNC(=O)c1ccccc1O | 11 µM | 5 µM | > 20 µM | 36% | > 20 µM | 30% |
|  |  | O=C(CSc1nnc(-c2ccccc2)n1Cc1ccccc1)NNC(=O)c1ccccc1O | 21 µM | 9 µM | > 20 µM | 34% | > 20 µM | 22% |
|  |  | Cc1ccc(-n2c(SCC(=O)NNC(=O)c3ccccc3O)nnc2-c2ccccc2O)cc1 | 5 µM | 3 µM | > 20 µM | 26% | > 20 µM | 12% |
|  |  | O=C(CSc1nnc(Cc2ccccc2)n1C1CCCCC1)NNC(=O)c1ccccc1O | 21 µM | 17 µM | > 20 µM | 11% | > 20 µM | 5% |
| inactive | inactive | O=C(CSc1nnc(-c2ccncc2)n1-c1ccccc1)N/N=C/c1ccccc1O | > 100 µM | > 100 µM | > 20 µM | 40% | > 20 µM | 44% |
|  |  | COc1ccc(-c2nnc(SCC(=O)NNC(=O)c3ccccc3O)n2-c2ccccc2)cc1OC | 22 µM | 21 µM | > 20 µM | 24% | > 20 µM | 13% |
|  |  | COc1ccccc1-n1c(SCC(=O)NNC(=O)c2ccccc2O)nnc1-c1ccccc1O | 8 µM | 6 µM | 20 µM |  | > 20 µM | 40% |
|  |  | O=C(CSc1nnc(-c2ccncc2)n1-c1ccc(F)cc1)NNC(=O)c1ccccc1O | 49 µM | 31 µM | > 20 µM | 22% | > 20 µM | 14% |
|  |  | COc1ccc(-n2c(Cc3ccccc3)nnc2SCC(=O)NNC(=O)c2ccccc2O)cc1 | 18 µM | 17 µM | > 20 µM | 0% | > 20 µM | 10% |
|  |  | Cn1c(SCC(=O)NNC(=O)c2ccccc2O)nnc1-c1ccccc1 | 64 µM | 58 µM | > 20 µM | 39% | > 20 µM | 32% |
|  |  | O=C(CSc1nnc(Cc2ccccc2)n1-c1cccc(Cl)c1)NNC(=O)c1ccccc1O | 9 µM | 8 µM | > 20 µM | 11% | > 20 µM | 5% |
